According to patent US12539281B2 (priority 2021, dated 2026):

Legend:
[1] = test system: blood-brain barrier (BBB); test: IA ethyl alcohol, NEO100 or mannitol mediated BBB disruption, extravasated EB dye in perfused mouse brain (Experiments 1-3); assay type: in vivo, mice; settings: for EB dye / EB dye penetration level / Patchy, or punctate pattern of EB dye: perfused mouse brain
Method: The method of IA and IC injection is similar to the IV push in the clinic, which comprises essentially the steps of: • pushing the injection composition at a particular infusion flow rate immediately after the placement of the IA catheter into the internal carotid artery (ICA) or the insertion of the injection needle into the left ventricle via the ultrasound-guided intracardiac (IC) puncture at room temperature.
When performing the IA and IC injections, the infusion flow rate is about 5-7 μl/second (0.3-0.45 ml/min), the infusion volume is about […] of the body weight (at 1 μl/g, volume/weight ratio), and USP purified water or sodium chloride is used to reconstitute varied EA solutions at room temperature.
Intracardiac injection of NEO100 or EA can be carried out through the procedure of ultrasound-guided intracardiac (IC) injection. […] The mouse is anesthetized in an induction chamber using 2-3% isoflurane in 100% oxygen at a rate of 0.2-0.5 L/min. Fur over the thorax area is removed and the animal is placed in a stereotactic frame in supine position, securing the upper and lower limbs to avoid body movement. The ultrasound transducer is placed above the chest of the animal, and the injection syringe is anchored to a platform to avoid erratic needle movements. An electrocardiogram monitor is used to monitor heart function during the intracardiac injection.
EB dye is used as the non-BBB permeable substance.
Photographs of the perfused brain tissues of the experimental mice after treatment are taken.
Extravasated EB dye is used as the non-BBB permeable substance.

[2] = test system: blood-brain barrier (BBB); test: Intraarterial EA-mediated antibody delivery into normal rat brain via left internal carotid artery catheter (Experiments 15-17); assay type: in vivo, rats
Method: The experimental rat is treated with IA 3% EA+50 μg goat anti-rat IgG (H+L) ALEXA FLUOR® 647 (ab150167, Cambridge, MA USA) via the left internal carotid artery catheter. The micrograph of the whole brain section is scanned with a fluorescence microscope. Two sections from the right and left hemispheres of the brain are selected respectively and are enlarged with a magnification of 63×. The scale bar used is 50 μm. The images of the left and right hemispheres, and the enlarged sections are studied.
EA-mediated antibody (goat anti-rat IgG (H+L) ALEXA FLUOR® 647) brain entry via catheter placement through the internal carotid artery (left) are tested. The cryosection photographs and images from the confocal microscope after EA treatment are taken for studies. An EA-untreated group is used as a control group. IA antibody [50 μg goat anti-rat IgG (H+L) ALEXA FLUOR® 647] and IA 3% EA+antibody [50 μg goat anti-rat IgG (H+L) ALEXA FLUOR® 647 are the two comparison groups.
An ALEXA FLUOR® 647 anti-human IgG antibody was applied via IA catheter delivery to rule out the nonspecific binding to the experimental rats. 3% EA-mediated antibody brain entry via catheter placement through the internal carotid artery (left) is tested and compared. The cryosection photographs and images from the confocal microscope after EA treatment are taken for studies. An EA-untreated group is used as a control group. IA antibody [50 μg ALEXA FLUOR® 647 anti-human IgG antibody (ab201841); and IA 3% EA+50 μg ALEXA FLUOR® 647 anti-human IgG antibody (ab201841, Cambridge, MA USA) are the two comparison groups.

[3] = test system: blood-brain barrier (BBB); test: Microcatheter 3% EA-mediated delivery of CD3-positive CAR T cells, confocal imaging (Experiment 26); assay type: in vivo; settings: microcatheter 3% EA + 2×10^6 CAR T cells, normal rat
Method: Similarly, the efficacy of microcatheter placement and infusion of an optimal 3% EA-mediated delivery of CAR T cells is validated. The CAR T cells are human CD3 positive, which can be analyzed by immunohistochemistry staining using rabbit anti-human CD3 primary antibody and Alexa Fluor 647-labeled goat anti-rabbit IgG secondary antibody to detect CD3 expression on the surface of CAR T cells by confocal imaging, as shown in FIG. 19. […] The confocal imaging staining is performed to detect the spreading of CD3-positive CAR T cells. The blue color comes from the DAPI-stained nuclei. The red color is Alexa Fluor 647-labeled […], as only the human CAR T cells are CD3 positive.

syngeneic mouse glioma = settings: IA ethyl alcohol+Anti-PD-1 antibody vs untreated control and IV Anti-PD-1 antibody
Method: Standard protocols for immunohistochemistry are followed. The primary antibody is rabbit anti-CD8 (ab4055, Abcam). Three independent experimental fields are examined, and images are analyzed and quantitated using ImageJ software of the National Institutes of Health.

[4] = test system: blood-brain barrier (BBB)
Description: EB dye is used as the non-BBB permeable substance. […] Photos of the perfused brain tissues are taken for observations and comparisons.
EB dye is used as a non-BBB-permeable substance. […] Photographs of the perfused brain tissues harvested at different time points are taken for observation and comparison, as shown in FIG. 9 of the drawings.
As a negative control, photographs of perfused brain tissues were taken from the following animals: the normal untreated mice; the mice were intravenously administered 2% EB; and the mice received the same dose of 0.3% EA mixed with a 2% EB solution intravenously as applied via intracardiac injection.

SMILES: CCO [ethyl alcohol]
- spread of EB dye inside the brain tissues ([1]; IA EA at 0.3%, 1%, and 3%, mice, superior and sagittal views): homogenized, evenly spread EB dye inside the brain tissues is observed
- EB dye ([1]; IA agent at 0.1%): Observed
- EB dye penetration level ([1]; IA agent at 0.1%): Widely
- Patchy, or punctate pattern of EB dye ([1]; IA agent at 0.1%): Not
- EB dye ([1]; IA agent at 0.3%): Observed
- EB dye penetration level ([1]; IA agent at 0.3%): Widely
- Patchy, or punctate pattern of EB dye ([1]; IA agent at 0.3%): Not
- EB dye ([1]; IA agent at 3%): Observed
- EB dye penetration level ([1]; IA agent at 3%): Widely
- Patchy, or punctate pattern of EB dye ([1]; IA agent at 3%): Not
- EB dye ([1]; IA agent at 5%): Observed
- EB dye penetration level ([1]; IA agent at 5%): Widely
- Patchy, or punctate pattern of EB dye ([1]; IA agent at 5%): Not
- antibody staining (pink color) in brain, confocal ([2]; IA 3% EA+50 μg ALEXA FLUOR 647 anti-human IgG antibody, rats): even and widely spread pink color
- antibody staining (pink color) in brain, confocal ([2]; IA 3% EA+50 μg goat anti-rat IgG (H+L) ALEXA FLUOR 647, rats): even and widely spread pink color
- fluorescence of labeled antibody, left hemisphere vs right hemisphere ([2]; IA 3% EA+50 μg goat anti-rat IgG (H+L) ALEXA FLUOR 647 via left ICA catheter, rat): more dense fluorescence than the right hemisphere
- delivery of CAR T cells into brain tissue [3]: can deliver BBB-impermeable CAR T cells into normal rat brain tissue
- replenishment of CD8+ T lymphocytes inside the tumor (syngeneic mouse glioma): significantly enhance the replenishment of CD8+ T lymphocytes
- extravasated EB dye in brain after intravenous EA ([4]; 0.3% EA mixed with 2% EB given intravenously (negative control route), mice): No extravasated EB dye in any parts of the brain
- BBB opening at 0 min time point ([4]; IA 0.3% EA then IV 2% EB, euthanized immediately, mice): immediate, homogeneous, and highly efficient BBB opening
- level of blue color observed in the brain as lagged time of EB administration increased ([4]; IA 0.3% ethyl alcohol, EB at 15, 60, 120, 240 min after, mice): decreased
- interval window of the breached BBB ([4]; IA EA): about 2 hours
- adverse effects ([4]; IA/intracardiac 0.3% EA, mice): occasional adverse effects, such as mild epilepsy, but no moderate to severe epilepsy and sudden death were observed
- duration of transient BBB opening ([4]; iv, 0.25 h): ≤ 120 min
